The source made the active and inactive calls.
What was measured:
[1] = target: Protein-arginine deiminase type-4 (Homo sapiens, UniProt Q9UM07); assay: human PAD4 inhibitor potency, dose response, biochemical, fluorescence readout (AID 492970)
[2] = target: T1, Replicative DNA helicase DnaB (Mycobacterium tuberculosis, UniProt P9WMR3); assay: DnaB intein splicing inhibitors, dose response, biochemical, cell-free fluorescence (AID 449749); assay type: functional
T1 sequence (P9WMR3 whole entry): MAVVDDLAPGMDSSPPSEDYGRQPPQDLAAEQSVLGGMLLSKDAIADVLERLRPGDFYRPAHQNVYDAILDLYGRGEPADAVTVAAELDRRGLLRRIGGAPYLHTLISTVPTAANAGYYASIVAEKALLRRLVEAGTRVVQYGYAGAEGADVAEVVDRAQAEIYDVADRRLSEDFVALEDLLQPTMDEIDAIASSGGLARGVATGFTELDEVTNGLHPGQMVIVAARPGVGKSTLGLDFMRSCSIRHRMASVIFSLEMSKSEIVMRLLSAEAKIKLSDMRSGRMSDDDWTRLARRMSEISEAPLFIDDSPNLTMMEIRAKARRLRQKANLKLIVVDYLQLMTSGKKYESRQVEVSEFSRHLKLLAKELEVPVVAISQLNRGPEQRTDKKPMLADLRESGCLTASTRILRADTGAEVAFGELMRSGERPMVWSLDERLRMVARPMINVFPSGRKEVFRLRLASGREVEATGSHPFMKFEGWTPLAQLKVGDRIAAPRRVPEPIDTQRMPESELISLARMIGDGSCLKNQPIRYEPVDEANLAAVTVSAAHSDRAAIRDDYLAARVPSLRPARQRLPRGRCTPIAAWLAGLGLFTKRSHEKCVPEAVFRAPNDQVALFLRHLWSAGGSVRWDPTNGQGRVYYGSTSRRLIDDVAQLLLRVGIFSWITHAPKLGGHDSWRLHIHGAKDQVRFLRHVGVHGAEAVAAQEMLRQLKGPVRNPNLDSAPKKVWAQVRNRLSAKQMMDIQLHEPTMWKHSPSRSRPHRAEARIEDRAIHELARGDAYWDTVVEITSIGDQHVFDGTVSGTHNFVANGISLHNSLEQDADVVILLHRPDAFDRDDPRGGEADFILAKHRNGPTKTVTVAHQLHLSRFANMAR

Protein RecA = target: T2, Protein RecA (Mycobacterium tuberculosis, UniProt P9WHJ3); assay: Fluorescence Cell-Free Homogeneous Dose Retest to Identify Inhibitors of RecA-Intein Splicing Activity. [Related pubchem assays (depositor defined):AID2097, AID2223, AID489010, AID492950]; assay type: functional
T2 sequence (P9WHJ3 whole entry): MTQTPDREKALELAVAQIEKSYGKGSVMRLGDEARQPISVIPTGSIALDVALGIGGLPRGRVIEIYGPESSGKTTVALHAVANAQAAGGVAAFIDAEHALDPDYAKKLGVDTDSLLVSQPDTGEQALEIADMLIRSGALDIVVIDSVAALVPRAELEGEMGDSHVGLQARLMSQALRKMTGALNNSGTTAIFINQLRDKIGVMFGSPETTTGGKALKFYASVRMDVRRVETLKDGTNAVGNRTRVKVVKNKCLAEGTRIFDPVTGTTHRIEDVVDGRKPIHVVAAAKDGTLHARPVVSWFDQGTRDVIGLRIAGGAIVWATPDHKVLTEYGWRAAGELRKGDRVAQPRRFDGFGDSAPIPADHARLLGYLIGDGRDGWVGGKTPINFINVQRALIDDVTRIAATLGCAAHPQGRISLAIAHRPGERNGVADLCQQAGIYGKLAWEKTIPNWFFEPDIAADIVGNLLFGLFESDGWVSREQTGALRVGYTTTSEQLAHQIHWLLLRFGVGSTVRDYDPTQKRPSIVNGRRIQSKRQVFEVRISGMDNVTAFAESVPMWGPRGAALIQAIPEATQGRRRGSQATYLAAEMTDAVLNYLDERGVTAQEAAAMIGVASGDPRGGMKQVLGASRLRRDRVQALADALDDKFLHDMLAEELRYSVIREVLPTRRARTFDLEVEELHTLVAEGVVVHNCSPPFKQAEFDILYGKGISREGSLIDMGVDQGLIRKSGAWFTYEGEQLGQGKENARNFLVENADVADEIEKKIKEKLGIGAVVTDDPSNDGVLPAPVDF

[3] = target: T3, Tyrosine-protein phosphatase non-receptor type 22 (Homo sapiens, UniProt Q9Y2R2); assay type: functional
[4] = target: T3, Tyrosine-protein phosphatase non-receptor type 22; assay type: functional; remark: listed apart in the source
[5] = target: Tyrosine-protein phosphatase non-receptor type 7 (Homo sapiens, UniProt P35236); assay type: functional
[6] = target: T4, High affinity choline transporter 1 (Homo sapiens, UniProt Q9GZV3); assay: CHT inhibitors, dose response, cell-based, 5-point CRC, membrane potential dye (AID 504840); assay type: functional
T4 sequence (Q9GZV3 whole entry): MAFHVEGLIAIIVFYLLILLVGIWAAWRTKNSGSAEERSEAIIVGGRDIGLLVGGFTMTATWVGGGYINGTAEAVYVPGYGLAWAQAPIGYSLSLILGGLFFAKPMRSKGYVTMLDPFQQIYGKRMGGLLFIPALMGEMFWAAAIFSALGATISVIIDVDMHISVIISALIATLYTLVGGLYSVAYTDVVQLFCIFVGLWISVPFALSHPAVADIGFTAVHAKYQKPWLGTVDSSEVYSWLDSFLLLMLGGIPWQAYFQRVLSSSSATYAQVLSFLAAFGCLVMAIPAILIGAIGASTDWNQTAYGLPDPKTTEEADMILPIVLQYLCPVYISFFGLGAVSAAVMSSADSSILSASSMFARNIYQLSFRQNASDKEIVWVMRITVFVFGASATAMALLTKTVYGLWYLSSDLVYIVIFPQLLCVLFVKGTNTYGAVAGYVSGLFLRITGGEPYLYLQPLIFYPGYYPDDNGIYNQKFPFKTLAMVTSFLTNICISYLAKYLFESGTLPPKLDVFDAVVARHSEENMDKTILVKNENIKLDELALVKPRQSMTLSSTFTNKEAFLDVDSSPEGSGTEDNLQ

Troponin, cardiac muscle = Troponin, cardiac muscle (Homo sapiens, UniProt P19429+P45379+P63316); assay: Fluorescence-based biochemical high throughput dose response assay for activators of the calcium sensitivity of cardiac Regulated Thin Filaments (RTF). [Related pubchem assays (depositor defined):AID493008, AID493018, AID504382, AID504383]; assay type: protein-complex assay
[7] = target: Peroxisome proliferator-activated receptor gamma/Nuclear receptor coactivator 2 (Homo sapiens, UniProt P37231); assay: (§1) TR-FRET dose response biochemical High Throughput Screening assay for agonists of the steroid receptor coactivator 2 (SRC-2) recruitment by the peroxisome proliferator-activated receptor gamma (PPAR gamma): non-selective agonists. [Related pubchem assays: 1297, 1032 ]; assay type: functional
[8] = target: Peroxisome proliferator-activated receptor gamma/Nuclear receptor coactivator 3 (Homo sapiens, UniProt P37231); assay: as §1, with “3 (SRC-3)” for “2 (SRC-2)”, “1301 (Confirmation screen.), 1048 (Primary screen.)]” for “1297, 1032 ]”; assay type: functional
[9] = target: Peroxisome proliferator-activated receptor gamma/Nuclear receptor coactivator 1 (Homo sapiens, UniProt P37231); assay: as §1, with “1 (SRC-1)” for “2 (SRC-2)”, “assays (depositor defined):AID1300, AID1808, AID504735, AID631]” for “assays: 1297, 1032 ]”; assay type: protein assay
[10] = target: T5, Sphingosine 1-phosphate receptor 4 (Homo sapiens, UniProt O95977); assay: Fluorescence dose response cell-based high throughput screening assay for agonists of the Sphingosine 1-Phosphate Receptor 4 (S1P4). [Related pubchem assays: 1509 (Primary screen.), 1523 (Confirmation screen in triplicates.)]; assay type: functional
T5 sequence (O95977 whole entry): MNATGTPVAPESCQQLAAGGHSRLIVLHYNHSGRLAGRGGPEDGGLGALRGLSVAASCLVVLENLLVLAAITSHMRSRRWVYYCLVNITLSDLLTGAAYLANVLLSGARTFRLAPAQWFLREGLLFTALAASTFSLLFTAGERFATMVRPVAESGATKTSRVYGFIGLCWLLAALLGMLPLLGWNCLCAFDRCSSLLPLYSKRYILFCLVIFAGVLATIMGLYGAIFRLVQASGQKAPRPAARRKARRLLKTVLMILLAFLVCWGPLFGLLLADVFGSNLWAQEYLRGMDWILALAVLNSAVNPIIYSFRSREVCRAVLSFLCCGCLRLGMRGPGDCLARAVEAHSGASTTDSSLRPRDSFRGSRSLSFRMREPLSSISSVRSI

[11] = target: T6, RNA-binding protein pos-1 (Caenorhabditis elegans, UniProt G5EF15); assay: inhibitors of POS-1/mex-3 RNA binding, dose response, biochemical, fluorescence polarization (AID 1964);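 further: purified POS-1 fused to maltose binding protein made in E. coli; potency of compounds blocking POS-1 binding to fluorescent RNA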
T6 sequence (G5EF15 whole entry): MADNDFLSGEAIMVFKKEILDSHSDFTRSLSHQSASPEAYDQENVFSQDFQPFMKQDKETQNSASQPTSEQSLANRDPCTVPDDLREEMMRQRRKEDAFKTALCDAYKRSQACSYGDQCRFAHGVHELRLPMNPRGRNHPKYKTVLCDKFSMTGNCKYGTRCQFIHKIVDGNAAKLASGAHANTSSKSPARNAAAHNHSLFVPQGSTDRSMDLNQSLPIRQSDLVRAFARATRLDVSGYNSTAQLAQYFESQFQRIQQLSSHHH

[12] = target: Sphingosine 1-phosphate receptor 1 (Homo sapiens, UniProt P21453); assay: Fluorescence-based counterscreen assay for S1P4 agonists: Cell-based dose response high throughput screening assay to identify agonists of the Sphingosine 1-Phosphate Receptor 1 (S1P1). [Related pubchem assays (depositor defined):AID1509, AID1523, AID1801, AID463107, AID463118, AID463119, AID463122, AID463123, AID463129, AID463225, AID504400, AID504460]; assay type: functional
[13] = target: T7, Zinc finger protein mex-5 (Caenorhabditis elegans, UniProt Q9XUB2); assay: MEX-5/TCR-2 RNA interaction inhibitors, dose response, biochemical, C. elegans, fluorescence polarization (AID 1960)
T7 sequence (Q9XUB2 whole entry): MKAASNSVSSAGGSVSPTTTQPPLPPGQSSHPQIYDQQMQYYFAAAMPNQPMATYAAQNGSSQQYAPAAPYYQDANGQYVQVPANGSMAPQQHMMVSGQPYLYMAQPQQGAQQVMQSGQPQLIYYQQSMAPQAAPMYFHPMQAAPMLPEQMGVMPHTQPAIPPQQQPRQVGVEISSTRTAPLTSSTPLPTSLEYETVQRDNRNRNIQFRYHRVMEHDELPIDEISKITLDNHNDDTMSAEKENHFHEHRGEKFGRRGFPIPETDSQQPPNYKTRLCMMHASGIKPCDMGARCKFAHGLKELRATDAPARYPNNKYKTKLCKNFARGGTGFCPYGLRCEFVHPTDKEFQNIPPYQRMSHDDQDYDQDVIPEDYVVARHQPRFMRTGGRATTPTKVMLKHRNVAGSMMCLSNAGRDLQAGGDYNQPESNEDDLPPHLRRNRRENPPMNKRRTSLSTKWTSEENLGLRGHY

## COC(=O)c1nc(O)c2ccccc2c1O
[1]
  IC50: 42 µM (inactive)
[2]
  AC50: 5.62 µM (active)
Protein RecA
  EC50: 3.57 µM (active)

## Cc1occc1C(=O)NNS(=O)(=O)c1ccc(Cl)cc1
[3]
  IC50: > 79.4 µM (inactive)
[4]
  IC50: > 79.4 µM (inactive)
[5]
  IC50: > 79.4 µM (inactive)
[6]
  IC50: 13.5 µM (active)

## CNC(=S)N1N=C(c2ccc(Br)cc2)CC1c1ccc(N(C)C)cc1 (stereo not given)
Troponin, cardiac muscle
  EC50: 40 µM (inactive)
[7]
  EC50: 14 µM (not active)
[8]
  EC50: > 79.4 µM (not active)
[9]
  EC50: 11.6 µM (inactive)

## CCOC(=O)c1c(-n2c(C)cc(C=C3C(=O)NC(=O)NC3=O)c2C)sc2c1CCCC2
[10]
  EC50: > 16.6 µM (not active)
[11]
  EC50: > 300 µM (inconclusive)
[12]
  EC50: > 49.8 µM (inactive)
[13]
  EC50: > 300 µM (inconclusive)

Reference: ChEMBL document CHEMBL1201862, “PubChem BioAssay data set” (2004)
